row,Compound,logP
1,C=CCC1(C(C)(C)C)C(=O)NC(=O)NC1=O,1.64
2,CCCCC1(CCCC)C(=O)NC(=O)NC1=O,2.7
3,CC(C)(C)C1(C)C(=O)NC(=O)NC1=O,0.8
4,CCCC1(CCC)C(=O)NC(=O)NC1=O,1.75
5,CC(C)(C)C1(Cl)C(=O)NC(=O)NC1=O,0.82
6,CCCC1(CCC)C(=O)NC(=S)NC1=O,2.66
7,CCC1(CC)C(=O)NC(=S)NC1=O,1.5
8,CC(C)C1C(=O)NC(=O)NC1=O,-0.02
9,CCC(C)C1(CC)C(=O)NC(=O)NC1=O (stereo not drawn),1.65
10,CCC1(C(C)(C)C)C(=O)NC(=O)NC1=O,1.38
11,CC(C)C1(C)C(=O)NC(=O)NC1=O,0.54
12,CC(C)(C)C1C(=O)NC(=O)NC1=O,0.28
13,CC(C)C1(C(C)C)C(=O)NC(=O)NC1=O,1.56

# From the OPERA property sets (Mansouri et al. 2018)
